Results on 20 compounds are retold here after BindingDB's records for doi:10.1021/jm00140a010 (1982).

Where a name gives a salt, the structure may show the parent alone.

For this assay, the target named is Angiotensin-converting enzyme. Description: Concentration required to inhibit the activity of Angiotensin I converting enzyme by 50%.
As for `NC(Cc1ccccc1)C(=O)CCC(=O)N1CCC[C@H]1C(=O)O` (stereo not given in full) [1-(5-Amino-4-oxo-6-phenyl-hexanoyl)-pyrrolidine-2-carboxylic acid; hydrochloride], the IC50 (usually the concentration at which inhibition is half-maximal) turned out to be 25000 nM. Turning to `O=C(NC(Cc1ccccc1)=C(CCC(=O)N1CCC[C@H]1C(=O)O)NO)c1ccccc1` [1-(5-Benzoylamino-4-hydroxyimino-6-phenyl-hexanoyl)-pyrrolidine-2-carboxylic acid], the IC50 stood at 1200 nM. `O=C(NC(Cc1ccc(OCc2ccccc2)cc1)C(=O)CCC(=O)N1CCC[C@H]1C(=O)O)c1ccccc1` (stereo not given in full) [1-[5-Benzoylamino-6-(4-benzyloxy-phenyl)-4-oxo-hexanoyl]-pyrrolidine-2-carboxylic acid] registered an IC50 of 10 nM. Against the preceding compound, the IC50 is about 120-fold lower. With `O=C(NC(Cc1ccccc1)C(=O)CCC(=O)N1CCC[C@H]1C(=O)O)OCc1ccccc1` (stereo not given in full) [1-(5-Benzyloxycarbonylamino-4-oxo-6-phenyl-hexanoyl)-pyrrolidine-2-carboxylic acid], the IC50 worked out at 240 nM. This IC50 lies about 24-fold higher than the previous one. `CC(=O)NC(Cc1ccccc1)C(=O)CCC(=O)N1CCC[C@H]1C(=O)O` (stereo not given in full) [1-(5-Acetylamino-4-oxo-6-phenyl-hexanoyl)-pyrrolidine-2-carboxylic acid]: the IC50 was 330 nM.

In turn, `Cc1ccccc1C(=O)NC(Cc1ccccc1)C(=O)CCC(=O)N1CCC[C@H]1C(=O)O` (stereo not given in full) [1-[5-(2-Methyl-benzoylamino)-4-oxo-6-phenyl-hexanoyl]-pyrrolidine-2-carboxylic acid] yielded an IC50 of 46 nM. To `NC(=O)[C@@H]1CCCN1C(=O)CCC(=O)C(Cc1ccccc1)NC(=O)c1ccccc1` (stereo not given in full) [1-(5-Benzoylamino-4-oxo-6-phenyl-hexanoyl)-pyrrolidine-2-carboxylic acid amide] belongs 150 nM; to `O=C(NC(Cc1ccc(OCc2ccccc2)cc1)C(=O)CCC(=O)N1CCC[C@H]1C(=O)OCc1ccccc1)c1ccccc1` (stereo not given in full) [1-[5-Benzoylamino-6-(4-benzyloxy-phenyl)-4-oxo-hexanoyl]-pyrrolidine-2-carboxylic acid benzyl ester], 86 nM. In the case of `O=C(NC(Cc1ccc(O)cc1)C(=O)CCC(=O)N1CCC[C@H]1C(=O)O)c1ccccc1` (stereo not given in full) [1-[5-Benzoylamino-6-(4-hydroxy-phenyl)-4-oxo-hexanoyl]-pyrrolidine-2-carboxylic acid] it was 4.7 nM; in that of `O=C(NC(Cc1cccnc1)C(=O)CCC(=O)N1CCC[C@H]1C(=O)O)c1ccccc1` (stereo not given in full) [1-(5-Benzoylamino-4-oxo-6-pyridin-3-yl-hexanoyl)-pyrrolidine-2-carboxylic acid], 5.7 nM; in that of `O=C(NC(Cc1ccccc1)C(=O)CCCC(=O)N1CCC[C@H]1C(=O)O)c1ccccc1` (stereo not given in full) [1-(6-Benzoylamino-5-oxo-7-phenyl-heptanoyl)-pyrrolidine-2-carboxylic acid], 42 nM. In turn, `CC(NC(=O)c1ccccc1)C(=O)CCC(=O)N1CCC[C@H]1C(=O)O` (stereo not given in full) [1-(5-Benzoylamino-4-oxo-hexanoyl)-pyrrolidine-2-carboxylic acid] showed an IC50 of 300 nM. Regarding `COc1ccc(CC(NC(=O)c2ccccc2)C(=O)CCC(=O)N2CCC[C@H]2C(=O)O)cc1OC` (stereo not given in full) [1-[5-Benzoylamino-6-(3,4-dimethoxy-phenyl)-4-oxo-hexanoyl]-pyrrolidine-2-carboxylic acid], the IC50 was found to be 1.4 nM. On to `O=C(CCC(=O)C(Cc1ccccc1)NC(=O)c1ccccc1)NC(Cc1ccccc1)C(=O)OCc1ccccc1` (stereo not given) [2-(5-Benzoylamino-4-oxo-6-phenyl-hexanoylamino)-3-phenyl-propionic acid benzyl ester], for which the midpoint of inhibition, the IC50, lay at 180 nM. Regarding `O=C(CCC(=O)C(Cc1ccccc1)NC(=O)c1ccccc1)N[C@H](Cc1ccccc1)C(=O)O` (stereo not given in full) [2-(5-Benzoylamino-4-oxo-6-phenyl-hexanoylamino)-3-phenyl-propionic acid], the IC50 was found to be 28 nM.

Turning to `O=C(CCC(=O)N1CCC[C@H]1C(=O)O)C(Cc1ccccc1)NC(=O)C1CCCO1` (stereo not given in full) [1-{4-Oxo-6-phenyl-5-[(tetrahydro-furan-2-carbonyl)-amino]-hexanoyl}-pyrrolidine-2-carboxylic acid], the IC50 came out at 20 nM. For the compound `Cc1ccccc1C(=O)NC(Cc1ccccc1)C(=O)CCC(=O)N1CCC[C@H]1C(=O)OCc1ccccc1` (stereo not given in full) [1-[5-(2-Methyl-benzoylamino)-4-oxo-6-phenyl-hexanoyl]-pyrrolidine-2-carboxylic acid benzyl ester], the IC50 was determined as 1600 nM.

In turn, `O=C(NC(Cc1cccnc1)C(=O)CCC(=O)N1CCC[C@H]1C(=O)OCc1ccccc1)c1ccccc1` (stereo not given in full) [1-(5-Benzoylamino-4-oxo-6-pyridin-3-yl-hexanoyl)-pyrrolidine-2-carboxylic acid benzyl ester] yielded an IC50 of 15 nM. To `O=C(NC(Cc1ccccc1)C(=O)CCC(=O)N1CCC[C@H]1C(=O)O)c1ccco1` (stereo not given in full) [1-{5-[(Furan-2-carbonyl)-amino]-4-oxo-6-phenyl-hexanoyl}-pyrrolidine-2-carboxylic acid] belongs 1.4 nM; to `CC(C)(C)OC(=O)[C@@H]1CCCN1C(=O)CCC(=O)C(Cc1ccc(OCc2ccccc2)cc1)NC(=O)c1ccccc1` (stereo not given in full) [1-[5-Benzoylamino-6-(4-benzyloxy-phenyl)-4-oxo-hexanoyl]-pyrrolidine-2-carboxylic acid tert-butyl ester], 8600 nM.
